Data from patent US20260364213A1, “RADIOLABELED COMPOUNDS OF TRIMETHOPRIM AND USES THEREOF” (THE TRUSTEES OF THE UNIVERSITY OF PENNSYLVANIA, priority 2023, published 2026).

Key:
eDHFR [1] = biological target: T1, eDHFR (Escherichia coli, UniProt P0ABQ4); type: cell-based; conditions: I45 mesothelioma cells, eDHFR-FLAG vs WT; 60 min at 37 °C
T1 sequence (P0ABQ4 1-159): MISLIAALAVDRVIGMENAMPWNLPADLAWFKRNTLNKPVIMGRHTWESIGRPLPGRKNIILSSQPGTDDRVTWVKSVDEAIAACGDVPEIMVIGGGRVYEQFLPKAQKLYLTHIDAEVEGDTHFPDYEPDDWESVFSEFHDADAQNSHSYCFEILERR
Excerpt: See, FIG. 1E. […] See, FIG. 1F.

HCT116 tumor cells = assay: Radiotherapy of HCT116 tumor-bearing athymic nude mice; type: in vivo, human
Excerpt: Tumor size measurements were taken using calipers from day 1 to 14 post-injection of the [^131I]mI-TMP to monitor the response of radiation therapy. […] See, FIG. 11 and FIG. 12.
To evaluate the therapeutic potential [^131I]mI-TMP, sixteen (16) 8- to 12-week-old female athymic nude mice (Charles River Laboratories) were inoculated with 1×10^7 HCT116 tumor cells (eDHFR+ or WT) on the left shoulder. The mice were then divided into two groups: […] (8) mice with HCT116-eDHFR (eDHFR-positive cells) and Eight (8) mice with HCT116-WT (eDHFR-negative) cells.
Three (3) of the five (5) mice from each cohort were imaged at 3- and 24-hours post [^131I]mI-TMPI radiotherapy injection using small animal SPECT and CT instruments. Five (5) mice from each cohort (which included the 3 imaged mice from each cohort) were then monitored for 14 days using caliper measurements and IVIS imaging.

I45 eDHFR-FLAG tumors = assay: Biodistribution in I45 tumor-bearing CD1 nude mice; type: in vivo, human; conditions: 24 hours
Description: RLT in I45 tumors. […] Briefly, I45 eDHFR-FLAG and WT cells were xenografted into the shoulders of female athymic CD1-Foxn1nu mice. The tumors were allowed to grow for ~2 weeks. Subsequently, [^131I]I-TMP was administered intravenously and a limited biodistribution study was performed. […] To assess for cytotoxicity in I45 mesothelioma cells, I45 WT and I45 eDHFR tumors were separately xenografted into CD1-Foxn1nu mice and either [^131I]I-TMP or saline was administered to form 4 experimental cohorts (n=7).
(v) In vivo I45 eDHFR-FLAG Tumor Model. Female CD1 nu/nu mice, aged six to eight weeks, were subject to subcutaneous xenografting. Specifically, I45 eDHFR-Flag cells (1×10^6 cells/mouse) were suspended in a solution comprising equal volumes of 75 μL RPMI complete medium and 75 μL Matrigel Matrix (Corning, 354234) for implantation on the shoulder.

eDHFR [2] = biological target: T1, eDHFR; assay: Uptake and washout in HCT116-eDHFR-Luc vs WT cells; type: cell-based; set-up: in CAR T cells fused to C-terminus of CD3zeta of FAP-CAR
Description: The cells were sampled at 1 h, 2 h and 4 h. […] Similarly, the process cells was repeated for 2 h and 4 h samples.
Next, the therapeutic effect of [^131/125I]mI-TMP in a human colorectal carcinoma cell line, HCT116 was analyzed. […] The specificity of radiotracer uptake was determined by blocking conditions. […] See, FIG. 10A.
A washout study was performed to know the retention of the tracer in the cells. HCT116_eDHFR cells were incubated with 0.037 MBq of compound 5b for 20 minutes. The cells were washed, resuspended and sampled at 60, 120 and 240 minutes. […] To examine the radiotherapeutic effect, the incubation period was increased and the dose […]. The cells were dosed with 3.7 MBq at 37 °C and incubated them with 2 and 4 hours. See, FIG. 10B.

SMILES: COc1cc(Cc2cnc(N)nc2N)cc([131I])c1OC [[^131I]mI-TMP, 5-(3-iodo-4,5-dimethoxybenzyl)pyrimidine-2,4-diamine]
- uptake in eDHFR+ cells compared to wild type (eDHFR [1]): ~ 80 fold
- tumor size, eDHFR-Luc tumors (HCT116 tumor cells; 18.5 MBq (500 μCi) i.v. tail vein, caliper, day 1 to 14): reduction in tumor size at day 7 post-injection, which remained stable until day 10 but increased by day 14
- tumor size, eDHFR-negative tumors (HCT116 tumor cells; 18.5 MBq (500 μCi) i.v., day 7 to day 14): continued to grow from day 7 to day 14
- presence in eDHFR+ tumors (I45 eDHFR-FLAG tumors; 18.5 MBq i.v.): present in eDHFR+ tumors, even after 24 hours
- uptake in eDHFR tumors compared to WT tumors (I45 eDHFR-FLAG tumors): over 1000 fold
- washout from eDHFR tumors (I45 eDHFR-FLAG tumors): without substantial washout
- uptake of radiotracer in eDHFR+ cells in comparison to wild-type (eDHFR [2]): two-fold increase in uptake
